What was measured:
h-GABA-A α5β3γ2 [1] = biological target: T1, h-GABA-A α5β3γ2 (Homo sapiens (Human), UniProt P18507+P31644); assay: [3H]flumazenil competition binding assay, membranes of HEK293 cells expressing human GABAA receptors; settings: Table 1, displacement of [3H]-Flumazenil 0.5 nM, mean of two determinations
Procedure: The affinity of compounds at GABAA receptor subtypes was measured by competition for [3H]flumazenil (85 Ci/mmol; Roche) binding to HEK293 cells expressing rat (stably transfected) or human (transiently transfected) receptors of composition α1β3γ2, α2β3γ2, α3β3γ2 and α5β3γ2.
Cell pellets were suspended in Krebs-tris buffer (4.8 mM KCl, 1.2 mM CaCl2, 1.2 mM MgCl2, 120 mM NaCl, 15 mM Tris; pH 7.5; binding assay buffer), homogenized by polytron for ca. 20 sec on ice and centrifuged for 60 min at 4° C. (50000 g; Sorvall, rotor: SM24=20000 rpm). The cell pellets were resuspended in Krebs-tris buffer and homogenized by polytron for ca. 15 sec on ice. Protein was measured (Bradford method, Bio-Rad) and aliquots of 1 mL were prepared and stored at 80° C.
Assays were incubated to equilibrium for 1 hour at 4° C. and harvested onto GF/C uni-filters (Packard) by filtration using a Packard harvester and washing with ice-cold wash buffer (50 mM Tris; pH 7.5). After drying, filter-retained radioactivity was detected by liquid scintillation counting. Ki values were calculated using Excel-Fit (Microsoft) and are the means of two determinations.

h-GABA-A α5β3γ2 [2] = biological target: T1, h-GABA-A α5β3γ2; assay: Two-electrode voltage clamp electrophysiology in Xenopus oocytes expressing GABAA receptors, modulation of GABA EC20 current; type: cell-based; settings: Table 1; GABA at EC20, test compound at approx. 30 fold its Ki, Xenopus oocytes
Procedure: Xenopus laevis oocytes at maturation stages V-VI were used for the expression of cloned mRNA encoding GABAA receptor subunits. Oocytes ready for RNA micro-injection were bought from Ecocyte, Castrop-Rauxel, Germany and stored in modified Barth's medium (composition in mM: NaCl 88, KCl 1, NaHCO3 2.4, HEPES 10, MgSO4 0.82, CaNO3 0.33, CaCl2 0.33, pH=7.5) at 20° C. until the experiment.
Oocytes were plated in 96-well plates to be used in an automated instrument (Robo-ocyte, MultiChannelSystems, Reutlingen, Germany) for microinjection and electrophysiological recordings. Approximately 50 nl of an aqueous solution containing the RNA transcripts for the subunits of the desired GABAA receptor was injected into each oocyte.
Electrophysiological experiments were performed on days 3 to 5 after the micro-injection of mRNA. During the experiment the oocytes were constantly superfused by a solution containing (in mM) NaCl 90, KCl 1, HEPES 5, MgCl2 1, CaCl2 1 (pH 7.4). Oocytes were impaled by two glass microelectrodes (resistance: 0.4 MΩ) which were filled with a solution containing KCl 1M+K-acetate 1.5 M and voltage-clamped to −80 mV. The recordings were performed at room temperature using the Roboocyte two-electrode voltage clamp system (Multichannelsystem). After an initial equilibration period of 1.5 min GABA was added for 1.5 min at a concentration evoking approximately 20% of a maximal current response (EC20). After another rest interval of 2.5 min GABA was again added evoking a response of similar amplitude and shape. […] Current traces were recorded at a digitization rate of 10 Hz during and shortly before and after the GABA application.
Each compound and concentration was tested on at least 3 oocytes.
For the analysis, the digitized current traces of the first and second GABA response were superimposed and, if necessary, rescaled to equal maximal amplitudes. The ratio between the two responses during the time interval of test compound application was calculated point by point. The extremum of the resulting “ratio trace” was taken as the efficacy (“Fold increase”) of the compound expressed as “% modulation of GABA EC20” (100*(Fold increase−1)).

| Structure (SMILES) | Ki (h-GABA-A α5β3γ2 [1]) | Fold increase h-GABA-A α5β3γ2 oocyte (h-GABA-A α5β3γ2 [2]) |
| --- | --- | --- |
| O=C(N[C@H]1CCOC1)c1ccc(OCc2c(-c3ccc(Cl)nc3)noc2C2CC2)nn1 [Example 179, (S)-6-((3-(6-chloropyridin-3-yl)-5-cyclopropylisoxazol-4-yl)methoxy)-N-(tetrahydrofuran-3-yl)pyridazine-3-carboxamide] | 43 nM | 1.82 |
| Cc1ccc(-c2noc(C)c2COc2ccc(C(=O)N3C[C@@H]4C[C@H]3CO4)nn2)cn1 [Example 151, (1S,4S)-2-oxa-5-azabicyclo[2.2.1]heptan-5-yl(6-((5-methyl-3-(6-methylpyridin-3-yl)isoxazol-4-yl)methoxy)pyridazin-3-yl)methanone] | 45.8 nM | 1.68 |

Further compounds by falling Ki (h-GABA-A α5β3γ2 [1]), results first:

| Ki (h-GABA-A α5β3γ2 [1]) | Fold increase h-GABA-A α5β3γ2 oocyte (h-GABA-A α5β3γ2 [2]) | Structure (SMILES) |
| --- | --- | --- |
| 76.1 nM | 1.54 | Cc1ccc(-c2nocc2COc2ccc(C(=O)NC3CCOCC3)cn2)cn1 [Example 44, 6-((3-(6-methyl-3-pyridyl)isoxazol-4-yl)methoxy)-N-tetrahydropyran-4-yl-pyridine-3-carboxamide] |
| 20.4 nM | 1.89 | Cc1ccc(-c2noc(C)c2COc2ccc(C(=O)N[C@H]3CCCC[C@H]3O)nn2)cn1 [Example 23, N-((1S,2R)-2-hydroxycyclohexyl)-6-((5-methyl-3-(6-methylpyridin-3-yl)isoxazol-4-yl)methoxy)pyridazine-3-carboxamide] |
| 16.1 nM | – | Cc1ccc(-c2noc(C)c2COc2ccc(C(=O)NC3CCOC(C)(C)C3)nn2)cn1 (racemic) [Example 58, (RS)—N-(2,2-dimethyltetrahydropyran-4-yl)-6-((5-methyl-3-(6-methylpyridin-3-yl)isoxazol-4-yl)methoxy)pyridazine-3-carboxamide] |
| 7.6 nM | 1.7 | CO[C@@H]1CC[C@@H](NC(=O)c2ccc(OCc3c(-c4ccc(C)nc4)noc3C)nn2)C1 (racemic) [Example 166, trans-N-((1RS,3RS)-3-methoxycyclopentyl)-6-((5-methyl-3-(6-methylpyridin-3-yl)isoxazol-4-yl)methoxy)pyridazine-3-carboxamide] |

— patent US11091471B2, “Isoxazolyl ether derivatives as GABAA α5 PAM” (Hoffmann-La Roche Inc., priority 2016, dated 2021)
